Patent publication US9447135B2, “Semi-synthetic mithramycin derivatives with anti-cancer activity” (UNIVERSITY OF KENTUCKY RESEARCH FOUNDATION, priority 2012, dated 2016)
Where two headings read alike, the source gives them in different places.

Experiments:
[1] = tested on: TC32 Ewing sarcoma cell line; assay: 72 hour cytotoxicity, TC32; format: cell-based; conditions: Ewing sarcoma cell line TC32, 72 hour
Method: (§1) The cytotoxicity of a subgroup of the MTM SA analogues was tested against various Ewing sarcoma cell lines and non-Ewing sarcoma cell lines over a 72 hour period. Each analogue was checked individually with a range of concentrations to determine the IC50 of the molecule in actively growing cell cultures.

[2] = tested on: 5838 Ewing sarcoma cell line; assay: 72 hour cytotoxicity, 5838; format: cell-based; conditions: Ewing sarcoma cell line 5838, 72 hour
Method: as §1

[3] = tested on: SK-ES-1 Ewing sarcoma cell line; assay: 72 hour cytotoxicity, SK-ES-1; format: cell-based; conditions: Ewing sarcoma cell line SK-ES-1, 72 hour
Method: as §1

[4] = tested on: A673 Ewing sarcoma cell line; assay: 72 hour cytotoxicity, A673; format: cell-based; conditions: Ewing sarcoma cell line A673, 72 hour
Method: as §1

[5] = tested on: TC71 Ewing sarcoma cell line; assay: 72 hour cytotoxicity, TC71; format: cell-based; conditions: Ewing sarcoma cell line TC71, 72 hour
Method: as §1

[6] = tested on: RDES Ewing sarcoma cell line; assay: 72 hour cytotoxicity, RDES; format: cell-based
Method: as §1

[7] = 72 hour cytotoxicity, RH30; format: cell-based; conditions: Ewing sarcoma cell line RH30, 72 hour; read-out: IC50 (nM) RH 30
Method: as §1

[8] = tested on: ES-2 Ewing sarcoma cell line; assay: 72 hour cytotoxicity, ES-2; format: cell-based; conditions: Ewing sarcoma cell line ES-2, 72 hour
Method: as §1

[9] = tested on: ES-3 Ewing sarcoma cell line; assay: 72 hour cytotoxicity, ES-3; format: cell-based; conditions: Ewing sarcoma cell line ES-3, 72 hour
Method: as §1

[10] = tested on: ES-4 Ewing sarcoma cell line; assay: 72 hour cytotoxicity, ES-4; format: cell-based; conditions: Ewing sarcoma cell line ES-4, 72 hour
Method: as §1

[11] = tested on: ES-7 Ewing sarcoma cell line; assay: 72 hour cytotoxicity, ES-7; format: cell-based; conditions: Ewing sarcoma cell line ES-7, 72 hour
Method: as §1

[12] = tested on: ES-8 Ewing sarcoma cell line; assay: 72 hour cytotoxicity, ES-8; format: cell-based; conditions: Ewing sarcoma cell line ES-8, 72 hour
Method: as §1

[13] = tested on: A549, human non-small cell lung cancer cells; assay: 72 hour cytotoxicity, A549 (resazurin); format: cell-based; conditions: non-Ewing sarcoma cell line A549, 72 hour
Method: The cytotoxic effects of the side chain modifications of SA were investigated in order to determine whether the modification were beneficial to the drug structure. All cytotoxicity assays were performed with A549, human non-small cell lung cancer cells. A549 cells were cultured as specified from ATCC at 37° C., 5% CO2. The cells were added to a 96 well plate (5,000 cells/well) and permitted to attach for 24 h. After 24 h culture media were replaced with the side chain modified MTM SA derivative containing media at differing concentrations. The cells were incubated with the drug containing media for 72 hrs total (n=8). Cell viability was determined using a resazurin assay that signifies mitochondrial metabolic activity in living cells. […] of a 1 mM resazurin solution in PBS was added to the control and analogue-treated cells at the end of the treatment period. Cell viability was determined three hours later by reading the fluorescence at 560 nm (Ex)/590 nm (Em). The fluorescence signals were quantified using a Spectramax M5 plate reader (Molecular Devices) equipped with a SoftMaxPro software. Cytotoxicity was determined by calculating the half maximal inhibitory concentration (IC50) of each sample.
as §1

[14] = tested on: PC3 non-Ewing sarcoma cell line; assay: 72 hour cytotoxicity, PC3; format: cell-based; conditions: non-Ewing sarcoma cell line PC3, 72 hour
Method: as §1

[15] = tested on: DU145 non-Ewing sarcoma cell line; assay: 72 hour cytotoxicity, DU145; format: cell-based; conditions: non-Ewing sarcoma cell line DU145, 72 hour
Method: as §1

[16] = tested on: C42 non-Ewing sarcoma cell line; assay: 72 hour cytotoxicity, C42; format: cell-based; conditions: non-Ewing sarcoma cell line C42, 72 hour
Method: as §1

[17] = tested on: VCaP non-Ewing sarcoma cell line; assay: 72 hour cytotoxicity, VCaP; format: cell-based
Method: as §1

[18] = tested on: HCT-116 non-Ewing sarcoma cell line; assay: 72 hour cytotoxicity, HCT-116; format: cell-based; conditions: non-Ewing sarcoma cell line HCT-116, 72 hour
Method: as §1

[19] = tested on: OVCAR-8 non-Ewing sarcoma cell line; assay: 72 hour cytotoxicity, OVCAR-8; format: cell-based; conditions: non-Ewing sarcoma cell line OVCAR-8, 72 hour
Method: as §1

[20] = biological target: T1, EWS-FLI1 promoter occupancy upstream from Nr0b1, Tgfbr2, and Rcor1 genes in TC32 cells (Homo sapiens, UniProt Q01543+Q01844); assay: EWS-FLI1 promoter occupancy by ChIP-RTPCR; format: cell-based
T1 construct: containing the 5′ region of EWS (Ewing sarcoma breakpoint region 1) and the 3′ ETS region of Fli-1; N-terminal part of EWS (EWSR1, Q01844), natural fusion partner from the translocation; endogenous in cells; host or cells: TC32 Ewing sarcoma cells
T1 sequence (Q01844+Q01543 fused): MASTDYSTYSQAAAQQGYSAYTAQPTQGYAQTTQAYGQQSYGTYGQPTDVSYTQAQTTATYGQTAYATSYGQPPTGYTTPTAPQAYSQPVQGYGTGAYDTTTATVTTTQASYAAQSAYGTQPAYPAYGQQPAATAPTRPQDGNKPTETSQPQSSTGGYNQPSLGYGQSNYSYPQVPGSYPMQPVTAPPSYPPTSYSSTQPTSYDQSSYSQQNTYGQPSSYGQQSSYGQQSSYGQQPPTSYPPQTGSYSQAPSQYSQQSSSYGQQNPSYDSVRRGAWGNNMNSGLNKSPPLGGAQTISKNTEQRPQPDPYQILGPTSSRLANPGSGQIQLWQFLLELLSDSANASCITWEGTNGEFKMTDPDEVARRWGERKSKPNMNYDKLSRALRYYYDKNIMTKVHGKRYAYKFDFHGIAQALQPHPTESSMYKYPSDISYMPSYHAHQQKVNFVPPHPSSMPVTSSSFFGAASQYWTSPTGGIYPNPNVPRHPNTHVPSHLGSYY
Method: (§2) Studies were conducted using MTM and lead analogs (mithramycin-SK (MTM-SK), mithramycin-SA-tryptophan (MTM-SA-Trp), and mithramycin-SA-phenylalanine (MTM-SA-Phe)). EWS-FLI1 promoter occupancy was investigated using chromatin immune precipitation real time PCR (ChIP-RTPCR). The effect of drug treatment on expression of genes controlled by EWSFLI1 was evaluated by quantitative real-time PCR (qRT-PCR) (FIG. 11). The effect of treatment with 100 nM of drug for 24 hours on cell cycle distribution was also compared among analogs (FIG. 12(b)). […] In addition, the maximum tolerated dose (MTD) and the effect of treatment on plasma total-calcium were used to assess relative toxicity in mice.
(§3) EWS-FLI1 promoter occupancy upstream from Nr0b1, Tgfbr2, and Rcor1 genes was evaluated in Ewing sarcoma cells (TC32 cells) by ChIP-RTPCR. […] (FIG. 11). […] (FIG. 12(a)). Furthermore, the effect of drug treatment appears to lead to differences in cell-cycle progression. […] (FIG. 12(b)).

[21] = tested on: genes controlled by EWS-FLI1 in TC32 cells; assay: Expression of genes controlled by EWS-FLI1 by qRT-PCR; format: cell-based; conditions: 6 hours, dose dependent
Method: FIG. 11A, FIG. 11B, FIGS. 11C, 11D, and 11E provide a series of graphs showing that MTM analogs have increased cytoxicity and distinct cell cycle distribution in Ewing sarcoma. The graphs show relative gene expression in TC32 cells treated with MTM analogs. Three genes controlled by the EWS-FLI1 transcription factor were investigated by qRT-PCR at four different treatment concentrations for 6 hours. CCK served as a negative control.
as §2, §3

TC32 cells = assay: Cell cycle distribution, FACS analysis; format: cell-based; conditions: 100 nM of drug for 24 hours
Method: FIG. 12(b) is a FACs analysis of TC32 cells treated with 100 nM of drug for 24 hours.
as §2, §3

[22] = tested on: several cancer cell lines; conditions: cited from earlier work
[23] = tested on: U118 non-Ewing sarcoma cell line; assay: 72 hour cytotoxicity, U118; format: cell-based; conditions: non-Ewing sarcoma cell line U118, 72 hour
Method: as §1

Ewing cell lines = assay: In vitro efficacy, GI50 (72-hr) in Ewing cell lines; format: cell-based; conditions: Ewing cell lines (n=8)
[24] = tested on: Ewing sarcoma (TC32, 5838, SKES1) and non-Ewing (A459 (lung) and PC3 (prostate)) cancer cell lines; assay: Selectivity assay, Ewing sarcoma versus non-Ewing cell panel (72 hr cytotoxicity)

CO[C@@H]([C@@H]1Cc2cc3cc(O[C@H]4C[C@@H](O[C@H]5C[C@@H](O)[C@H](O)[C@@H](C)O5)[C@H](O)[C@@H](C)O4)c(C)c(O)c3c(O)c2C(=O)[C@H]1O[C@H]1C[C@@H](O[C@H]2C[C@@H](O[C@H]3C[C@](C)(O)[C@H](O)[C@@H](C)O3)[C@@H](O)[C@@H](C)O2)[C@H](O)[C@@H](C)O1)[C@@H](O)C(C)=O [MTMSK, reference compound]
IC50 ([1]; read-out: IC50 (nM) TC 32): 23 nM | IC50 [2]: 23 nM | IC50 [3]: 25 nM | IC50 [4]: 37 nM | IC50 [5]: 31 nM | IC50 [6]: 40 nM | IC50 [7]: 62 nM | IC50 [8]: 39 nM | IC50 [9]: 56 nM | IC50 [10]: 32 nM | IC50 [11]: 42 nM | IC50 [12]: 44 nM | IC50 [13]: 30 nM | IC50 [14]: 37 nM | IC50 ([15]; read-out: IC50 (nM) DU 145): 32 nM | IC50 [16]: 89 nM | IC50 [17]: 36 nM | IC50 [18]: 31 nM | IC50 [19]: 29 nM | effect on FLI1 binding to promoters (ChIP-RTPCR) [20]: mostly stabilize FLI1 | rank-order of efficiency of mRNA down-regulation (qRT-PCR) [21]: MTM-SA-Trp>MTM=MTM-SK | cell cycle distribution (TC32 cells): primarily in G1/G2 phase | activity compared to the parent MTM [22]: increased activity

COC(=O)C(Cc1cccc2[nH]ccc12)NC(=O)[C@@H](OC)[C@@H]1Cc2cc3cc(OC4CC(OC5CC(O)C(O)C(C)O5)C(O)C(C)O4)c(C)c(O)c3c(O)c2C(=O)[C@H]1OC1CC(OC2CC(OC3CC(C)(O)C(O)C(C)O3)C(O)C(C)O2)C(O)C(C)O1 (some centres unmarked) [MTMSA-Trp]
IC50 ([1]; Homo sapiens, TC-32): 18 nM | IC50 [2]: 10 nM | IC50 ([3]; Homo sapiens, SK-ES1): 38 nM | IC50 ([4]; Homo sapiens): 44 nM | IC50 ([5]; TC-71): 34 nM | IC50 ([6]; RD-ES): 39 nM | IC50 [7]: 48 nM | IC50 [8]: 63 nM | IC50 [9]: 64 nM | IC50 [10]: 33 nM | IC50 [11]: 41 nM | IC50 [12]: 40 nM | IC50 ([13]; Homo sapiens): 87 nM | IC50 [23]: 56 nM | IC50 [14]: 45 nM | IC50 ([15]; Homo sapiens, DU-145): 31 nM | IC50 [16]: 96 nM | IC50 ([17]; Homo sapiens): 20 nM | IC50 ([18]; Homo sapiens): 23 nM | IC50 ([19]; Homo sapiens): 72 nM | effect on FLI1 binding to promoters (ChIP-RTPCR) [20]: the most destabilizing | rank-order of efficiency of mRNA down-regulation (qRT-PCR) [21]: MTM-SA-Trp>MTM=MTM-SK | cell cycle distribution (TC32 cells): increased S-phase accumulation | potency (GI50) among Ewing cell lines compared to other analogs (Ewing cell lines): relatively higher potency (lower GI50) | selectivity against Ewing sarcoma cells relative to non-Ewing cells ([24]; FIG. 9, right panel): 9 fold | more potent than MTM ([24]; against Ewing sarcoma cells, relative to MTM): about 3 fold | higher selectivity than MTM against Ewing sarcoma relative to non-Ewing cell lines ([24]; relative to MTM, 72 hr): 3 fold
